# From patent US20140363386A1, “DUALISTIC MOLECULES HAVING UV RADIATION FILTRATING ABILITY AT WIDE SPECTRUM AND POTENT DAMPING ACTIVITY OF THE REACTIVITY OF FREE RADICALS (RADICAL SCAVENGING)” (UNIVERSITA DEGLI STUDI FERRARA, priority 2012, published 2014)
# Legend:
# [1] = PCL analysis of anti-oxidant activity of standard formulations; assay type: biochemical; details: standard formulation containing the compound at 3%
# From the text: (§1) In particular, the DPPH test, based on the measurement of the reducing activity of anti-oxidant molecules against the radical DPPH (2,2-diphenyl-1-picrylhydrazyl), the FRAP (Ferric Reducing/Antioxidant Power) test, which measures the ability of an anti-oxidant to reduce the Fe^3+ ions to Fe^2+ ions in acid conditions and in the presence of TPTZ (2,4,6-tripyridyl-triazine) and PCL (Photochemiluminescence) analysis, which allows measurement of the inhibition by the anti-oxidants of photo-induced auto-oxidation of the luminol promoted by the superoxide anion, were used.
# We then proceeded to measure the anti-oxidant activity through PCL analysis of the standard formulations containing a compound according to the present invention at the concentration of 3%. Such an anti-oxidant activity was measured in order to compare it with the reference molecules.
# (§2) Standard Formulation 3% Prepared at pH 7.2-7.6
# [2] = in vitro spectrophotometric determination of solar protection parameters of standard formulations (Diffey and Robson); details: standard formulation containing the compound at 3%
# From the text: Determining the UVA/UVB ratio is a parameter that is mostly independent from the SPF value that provides a clear indication of the protective power of the solar product against UVA rays. According to the Boots scale, when the value of such a ratio is comprised between 0.6 and 0.8 the product offers a high UVA protection, when the value is greater than 0.8 the UVA protection is considered to be its maximum.
# The critical λ is an important instrumental parameter for evaluating the protective power of the solar product against UVA rays: when the critical λ is greater than 370 nm the product offers protection over a wide spectrum.
# Determining the solar protection parameters was carried out through in vitro tests that foresee the use of spectrophotometric techniques, according to the international protocol Diffey and Robson (B. L. Diffey, J. Robson, J. Soc. Cosm. Chem., 1989, 40: 127-133).
# As well as 2-phenyl-1H-benzimidazole-5-sulfonic acid, as reference product with which to compare the data a commercial filter (Neo Heliopan® AP) was also used, known to be a water-soluble exclusively UVA filter with critical λ greater than 370 nm. The results of some standard formulations containing a compound according to the present invention are given as an example in table 3.
# as §2
# [3] = FRAP (Ferric Reducing/Antioxidant Power) test; assay type: biochemical; details: anti-oxidant activity, Trolox equivalents; acid conditions, TPTZ
# Experimental: (§3) The compound object of the present invention was tested through different in vitro tests that complement one another, in order to evaluate its ability to counteract different radical species.
# as §1
# (§4) In table 1, in which the values are expressed in μmol Trolox/mmol compound, some examples are given.
# [4] = DPPH test: reducing activity of anti-oxidant molecules against the radical DPPH; assay type: biochemical; details: Trolox equivalents
# Experimental: as §3, §1, §4
# [5] = maximum wavelength absorbable (λ max), UV absorption; assay type: physicochemical; details: for λ max: pH between 7.4 and 8 in a phosphate buffer
# Experimental: Moreover, the compound object of the present invention recorded a significant increase in the maximum wavelength absorbable (λ max) with respect to 2-phenyl-1H-benzimidazole-5-sulfonic acid, which has been taken as reference.
# Some examples are given in table 2, in which the λ max were measured at pH comprised between 7.4 and 8 in a phosphate buffer.
# In 5 ml of ethanol 100 mg of 3,4-diamine-benzenesulfonic acid sulfate salt (0.35 mmol), 48 mg of 3,4 dihydroxybenzaldehyde (0.35 mmol) and 0.7 ml of sodium bisulfite solution 1N (0.7 mmol) were mixed. The reaction mixture was placed at 80° C. for 24 hours. After having evaporated the solvents, the raw product was treated with 5 ml of solution 5M of HCl. The precipitate was then filtered and the product recrystallized from methanol.
# [6] = PCL (Photochemiluminescence) analysis of the compounds; assay type: biochemical; details: anti-oxidant activity, Trolox equivalents; photo-induced auto-oxidation of luminol
# Experimental: as §3, §1, §4
# [7] = known property of the commercial filter; cited from earlier work
SMILES,λ max [5],"maximum absorption in the UV region ([5]; product of Example 1, medium not stated)",anti-oxidant activity through PCL analysis [1],SPF [2],UVA/UVB (ratio between UVA absorbance and UVB absorbance) [2],λ critical [2],FRAP [3],DPPH [4],PCL [6],critical λ [7]
"Oc1ccc(-c2nc3ccccc3[nH]2)c(O)c1 [2-(2,4-Dihydroxy-phenyl)-1H-benzimidazole]",315.5 nm,,8.66 ± 0.04 μmol Trolox/g cosmetic formulation,4.85 ± 0.71,1.31 ± 0.04,379.5 nm,37.3 ± 0.3 μmol Trolox/mmol compound,16.5 ± 0.5 μmol Trolox/mmol compound,198 ± 3 μmol Trolox/mmol compound,
"O=S(=O)(O)c1ccc2[nH]c(-c3ccc(O)c(O)c3)nc2c1 [2-(3,4-dihydroxy-phenyl)-1H-benzoimidazole-5-sulfonic acid]",313.5 nm,313 nm,725 ± 3 μmol Trolox/g cosmetic formulation,13.36 ± 2.20,0.88 ± 0.04,358.5 nm,2313 ± 26 μmol Trolox/mmol compound,2145 ± 40 μmol Trolox/mmol compound,27855 ± 764 μmol Trolox/mmol compound,
O=C(O)c1ccc2[nH]c(-c3ccc(O)cc3)nc2c1 [2-(4-Hydroxy-phenyl)-1H-benzoimidazole-5-carboxylic acid],312.5 nm,,0.16 ± 0.02 μmol Trolox/g cosmetic formulation,8.42 ± 1.55,0.89 ± 0.05,350 nm,2.62 ± 0.06 μmol Trolox/mmol compound,1.19 ± 0.02 μmol Trolox/mmol compound,7 ± 0.3 μmol Trolox/mmol compound,
"O=S(=O)(O)c1ccc2[nH]c(-c3ccccc3)nc2c1 [2-phenyl-1H-benzimidazole-5-sulfonic acid, reference compound]",302.5 nm,,0 μmol Trolox/g cosmetic formulation,6.33 ± 1.24,0.31 ± 0.06,333 nm,0.79 ± 0.05 μmol Trolox/mmol compound,4.40 ± 0.03 μmol Trolox/mmol compound,<0 μmol Trolox/mmol compound,
"O=S(=O)([O-])c1cc(S(=O)(=O)O)cc2[nH]c(-c3ccc(-c4nc5c(S(=O)(=O)[O-])cc(S(=O)(=O)O)cc5[nH]4)cc3)nc12.[Na+].[Na+] [Neo Heliopan ® AP, reference compound]",,,0 μmol Trolox/g cosmetic formulation,4.59 ± 0.37,2.46 ± 0.12,371 nm,,,,greater than 370 nm

# Now from value to molecule, other results behind:
λ max [5],"maximum absorption in the UV region ([5]; product of Example 1, medium not stated)",SMILES,anti-oxidant activity through PCL analysis [1],SPF [2],UVA/UVB (ratio between UVA absorbance and UVB absorbance) [2],λ critical [2],FRAP [3],DPPH [4],PCL [6],critical λ [7]
321.5 nm,,"O=C(O)c1ccc2[nH]c(-c3ccc(O)cc3O)nc2c1 [2-(2,4-Dihydroxy-phenyl)-1H-benzoimidazole-5-carboxylic acid]",4.97 ± 0.17 μmol Trolox/g cosmetic formulation,4.70 ± 0.62,1.48 ± 0.03,369.5 nm,31.6 ± 1.7 μmol Trolox/mmol compound,32.2 ± 2.1 μmol Trolox/mmol compound,160 ± 4 μmol Trolox/mmol compound,
311 nm,,"Oc1ccc(-c2nc3ccccc3[nH]2)cc1O [2-(3,4-Dihydroxy-phenyl)-1H-benzimidazole]",760 ± 5 μmol Trolox/g cosmetic formulation,7.07 ± 1.36,0.93 ± 0.02,367.5 nm,2523 ± 29 μmol Trolox/mmol compound,1975 ± 15 μmol Trolox/mmol compound,27442 ± 329 μmol Trolox/mmol compound,
317 nm,,"O=C(O)c1ccc2[nH]c(-c3ccc(O)c(O)c3)nc2c1 [2-(3,4-Dihydroxy-phenyl)-1H-benzoimidazole-5-carboxylic acid]",383 ± 18 μmol Trolox/g cosmetic formulation,9.82 ± 1.30,1.21 ± 0.04,369.5 nm,1803 ± 22 μmol Trolox/mmol compound,1772 ± 75 μmol Trolox/mmol compound,22014 ± 360 μmol Trolox/mmol compound,
